Values of other authors as cited in patent US7101871B2, “Beta-amino heterocyclic dipeptidyl peptidase inhibitors for the treatment or prevention of diabetes” (Merck & Co., Inc., priority 2002, dated 2006).

Assays:
[1] = system: cardiac allograft; details: rats; doubled from day 7 to day 14
[2] = system: hematopoiesis; details: mouse, cyclophosphamide-induced neutropenia (WO 99/56753)
[3] = system: GRF degradation in plasma

## CC(C)N1CCC(c2ccccc2)(c2ccccc2)CC1 [Prodipine, Pro-Pro-diphenyl-phosphonate]
[1]
  cardiac allograft survival: 14 day

## CC(C)[C@H](N)C(=O)N1CCC[C@H]1B(O)O [Val-Boro-Pro]
[2]
  effect on hematopoiesis: stimulated hematopoiesis

## CC[C@H](C)[C@H](N)C(=O)N1CCC[C@H]1C(=O)N[C@H](C(=O)O)[C@@H](C)CC [diprotin A]
[3]
  effect on degradation of GRF to GRF[3-44] in plasma: prevented
